Assay results: patent US12617799B2, “Pyrazolopyrimidinone compounds” (Orphagen Pharmaceuticals, Inc., priority 2021, dated 2026)

Legend:
[1] = biological target: T1, human SF-1 (Homo sapiens, UniProt Q13285); assay: SF-1 Luc assay (Gal4DBD-SF-1LBD luciferase reporter in transfected CHO-K1 cells); type: cell-based; settings: CHO-K1 cells transfected with GAL4-SF-1 plasmid, 40 hours incubation; read-out: hSF-1-Luc: EC50
T1 construct: expressed in transfected cells; host or cells: CHO-K1 cells (Chinese hamster ovary), transient cotransfection with pG5luc
Excerpt: BamHI and XbaI sites introduced by the primers […] (forward) and […] (reverse) were used for subcloning the amplicon into pFA-CMV.
Cells were routinely cultured by splitting them from 1:10 to 1:20. […] Four hours after transfection, cells were trypsinized and suspended to a concentration of 1.6×10^5 cells/ml in supplemented Ham's F-12 media.
Assays: The collected cells were resuspended in the culture medium and plated into a 384 well-white plate (Corning Life Sciences, Acton, MA) at 8,000 cells/50 μL/well.
Measurement of SF-1 Transcriptional Activity: SF-1 transcriptional activity was detected as the intracellular Luc activity using SteadyLite Plus HTS Reporter Gene Assay System. After the measurement of the cell viability, the culture media in the 384 well-plate were completely removed. Then, 30 μL of the Luc substrate solution was added into each well and incubated for 10 min at room temperature. After the incubation, luminescence of each well was measured by a microplate reader.
Calculation of the SF-1 Transcriptional Activity (% of Control): The % of control for the transcriptional activity was calculated according to the following equation: % of control=A/B×100 Equation • A: luminescence count in the test article-treated CHO cells transfected with GAL4-SF-1 plasmid • B: mean luminescence count in the vehicle-treated CHO cells transfected with GAL4-SF-1 plasmid

[2] = system: rat Leydig tumor cell line R2C; assay: R2C proliferation assay for SF-1 antagonists (EdU incorporation); type: cell-based; settings: R2C, read-out: R2C: EC50
Protocol: SF-1 regulates progenitor cell formation and survival in adult Leydig cells. Anti-proliferative effects of SF-1 antagonists using a SF-1+ rat Leydig tumor cell line, R2C, was investigated. Cell proliferation was measured by detecting DNA incorporation of EdU, a nucleoside analogue that can be fluorescently tagged after cell fixation.
Proliferation of the rat Leydig tumor cell line R2C (ATCC® CCL-97™) was assessed using 5-ethynyl-2′-deoxyuridine (EdU), a nucleoside analogue incorporated during DNA synthesis that can be fluorescently tagged after cell fixation. Cycloheximide, a protein synthesis inhibitor, was used as a positive control for the assay.
R2C cells are maintained according to a protocol provided by the American Type Culture Collection (ATCC). At the time of assay, R2C cells were diluted to 1.0 million cells/mL with culture medium (F12 medium supplemented with 2% FBS and 1% Penicillin-Streptomycin) and 50 uL of cell suspension seeded into each well of 384-well clear bottom plates. The assay plates were incubated in a humidified, 37° C., 6% CO2 atmosphere for 24 hours. Serially diluted SF-1 antagonists, cycloheximide or vehicle (DMSO) were then applied to the R2C cells and incubated in a humidified, 37° C., 6% CO2 atmosphere for two days. EdU (Invitrogen), at a final concentration of 5 μM, was added to the cells and incubated for an additional 16 hours, after which cells were fixed with 10% formalin.
Cells were then washed and permeabilized in 0.5% TritonX-100/PBS solution at RT for 1 hour. EdU incorporation was detected by labeling EdU with 6-FAM azide (Lumiprobe) using a copper (I)-catalyzed Click reaction between an azide and alkyne. The reaction mixture consists of 5 mM ascorbic acid, 1 mM CuSO4, 1 μM 6-FAM azide dissolved in PBS buffer. […] For data normalization, the average fluorescence of DMSO wells was defined as 100%, and average fluorescence of 10 μM cycloheximide wells was defined as 0%. Curve fitting and EC50 determination were performed using the variable slope sigmoidal dose-response analysis.
R2C cells were routinely cultured in R2C culture medium. To assay SF-1 antagonist inhibitory activity, R2C cells were resuspended in the R2C plating medium and plated into a 384 well-clear bottom black plate at 20,000 cells/50 μL/well. […] 10 μL EdU plating solution were then dispensed into each well of assay plate incubated at 37° C., 6% CO2 for two days.
R2C proliferation is measured by detecting the fluorescent labelled EdU. The R2C assay plates were fixed by dispense 60 μL of 10% formalin into each well, and the plates were incubated at room temperature for 1 hour on an orbital shaker. The plates were washed with 80 μL of PBS three times, and cells were permeabilized by treating with 100 μL of PBS-0.5% TritonX-100 at RT for 1 hour on an orbital shaker. The plates were washed with 80 μL of PBS three times, and after the last wash, 25 μL of PBS was dispensed into each well. 25 μL of 2× mounting mix solution was then added into each well of fixed cells, and the plates were incubated at RT for 30 min in the dark on an orbital shaker. The cells were washed with 80 μL of PBS, three times, and after the last wash, 25 μL of PBS was dispensed into each well. […] The cells were washed with 80 μL of PBS, three times, and after the last wash, 50 μL of PBS was dispensed into each well. Assay plates were sealed with aluminum foil, and fluorescence was measured using a Envision microplate reader.
The % of control for the proliferation activity was calculated according to the following equation: % of control=100×(A−C)/(B−C) Equation • A: fluorescence count in the test article-treated R2C cells • B: mean fluorescence count in the vehicle-treated R2C cells • C: mean fluorescence count in the 10 μM cycloheximide-treated R2C cells

T1 sequence (Q13285 198-461 limits assumed): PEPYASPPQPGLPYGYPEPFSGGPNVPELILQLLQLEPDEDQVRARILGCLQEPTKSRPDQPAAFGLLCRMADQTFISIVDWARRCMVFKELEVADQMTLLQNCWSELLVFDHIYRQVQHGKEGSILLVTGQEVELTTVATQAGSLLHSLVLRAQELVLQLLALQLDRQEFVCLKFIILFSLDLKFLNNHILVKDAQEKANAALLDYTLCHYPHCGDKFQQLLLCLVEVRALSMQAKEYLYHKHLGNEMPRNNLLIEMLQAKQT

Row | Compound | EC50 [1] [µM] | EC50 [2] [µM]
1 | CCn1nc(Nc2ccc(C(F)(F)F)cc2)c2ncn(CC(=O)N[C@H]3CC[C@H](OCC(C)(C)O)CC3)c(=O)c21 [Compound 84, 2-(1-ethyl-7-oxo-3-((4-(trifluoromethyl)phenyl)amino)-1,7-dihydro-6H-pyrazolo[4,3-d]pyrimidin-6-yl)-N-((1r,4r)-4-(2-hydroxy-2-methylpropoxy)cyclohexyl)acetamide] | < 0.2 | < 0.2
2 | CC(C)(O)CO[C@H]1CC[C@H](NC(=O)Cn2cnc3c(Nc4ccc(C(F)(F)F)cc4)nn(CC(F)(F)F)c3c2=O)CC1 [Compound 92, N-((1r,4r)-4-(2-hydroxy-2-methylpropoxy)cyclohexyl)-2-(7-oxo-1-(2,2,2-trifluoroethyl)-3-((4-(trifluoromethyl)phenyl)amino)-1,7-dihydro-6H-pyrazolo[4,3-d]pyrimidin-6-yl)acetamide] | 0.2 to 1 | 0.2 to 1
3 | COc1ccc(NC(=O)Cn2cnc3c(Nc4ccc(C(F)(F)F)cc4)nn(C(C)C)c3c2=O)cc1F [Compound 98, N-(3-fluoro-4-methoxyphenyl)-2-(1-isopropyl-7-oxo-3-((4-(trifluoromethyl)phenyl)amino)-1,7-dihydro-6H-pyrazolo[4,3-d]pyrimidin-6-yl)acetamide] | 0.2 to 1 | 1 to 10
